From patent US20110195425A1, “SYSTEMS AND METHODS FOR DIAGNOSING PARASITE INFECTIONS” (priority 2010, published 2011)
Where “and” joins values, the source holds several entries; their conditions need not be identical. Equal values may be shown once.

How the values were obtained:
peroxidase = assay: Peroxidase assay in saliva (Amplex Red); assay type: biochemical; settings: single compounds at 500 ppm; pooled and unpooled saliva; 30 minutes; FIGS. 26-29
Protocol: To determine the effect of various GRAS compounds as inhibitors of peroxidase activity, a standard assay using Amplex® Red (Life Technologies), which releases a fluorescent oxidation product.
The test compounds, such as GRAS materials or cocktails of same, were prepared at a concentration of 500 ppm in distilled water. For the assay, 50 μl samples of test compounds were mixed with 20-30 μl of saliva (either “pooled” or “unpooled”) prior to the addition of Amplex® Red. Following the mixture of the test compounds with saliva, […] Amplex® Red/HRP working solution (See Protocol for Invitrogen Assay #A22188, which is incorporated herein in its entirety), which has a concentration of 100 μM of Amplex® Red, is added to the test compound/saliva mixture. […] Reactions were allowed to run for 30 minutes during these assays.

α-amylase = target: T1, α-amylase (Homo sapiens, UniProt P0DUB6); assay: α-Amylase inhibition saliva screening (2-chloro-p-nitrophenol-maltotriose substrate, absorbance 405 nm); assay type: biochemical; settings: for Ave (α-amylase assay reading): average of four readings; for α-amylase assay single reading (absorbance at 405 nm): saliva, test compound prepared at 5,000 ppm, 37° C., replicate readings
T1 sequence (P0DUB6 16-511): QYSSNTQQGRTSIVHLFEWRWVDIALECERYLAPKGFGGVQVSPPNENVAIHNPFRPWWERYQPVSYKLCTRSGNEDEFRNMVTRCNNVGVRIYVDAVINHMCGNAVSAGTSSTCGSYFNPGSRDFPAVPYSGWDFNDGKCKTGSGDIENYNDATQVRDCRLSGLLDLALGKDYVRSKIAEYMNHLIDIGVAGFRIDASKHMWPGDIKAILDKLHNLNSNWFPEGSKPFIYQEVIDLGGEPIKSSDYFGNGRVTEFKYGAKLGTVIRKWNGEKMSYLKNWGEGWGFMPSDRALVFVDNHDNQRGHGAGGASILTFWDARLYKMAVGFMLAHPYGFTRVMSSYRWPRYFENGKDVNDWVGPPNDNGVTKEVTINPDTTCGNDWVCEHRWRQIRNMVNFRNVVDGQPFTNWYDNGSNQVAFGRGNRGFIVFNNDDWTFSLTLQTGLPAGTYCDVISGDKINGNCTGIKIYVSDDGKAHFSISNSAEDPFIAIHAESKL
Excerpt: Enzymatic activity of α-amylase on the substrate yields 2-chloro-p-nitrophenol, which can be measured spectrophotometrically at 405 nm. The amount of α-amylase activity present in the experimental sample is directly proportional to the increase in absorbance at 405 nm.

Compound | peroxidase inhibition (peroxidase) | Ave (α-amylase assay reading) (α-amylase; 0 min) | α-amylase assay single reading (absorbance at 405 nm) (α-amylase; 0 min) | Ave (α-amylase assay reading) (α-amylase; 5 min) | α-amylase assay single reading (absorbance at 405 nm) (α-amylase; 5 min) | Ave (α-amylase assay reading) (α-amylase; 15 min) | α-amylase assay single reading (absorbance at 405 nm) (α-amylase; 15 min) | α-amylase assay single reading (absorbance at 405 nm) (α-amylase; 0 min, sulfate hydrate) | α-amylase assay single reading (absorbance at 405 nm) (α-amylase; 5 min, sulfate hydrate) | α-amylase assay single reading (absorbance at 405 nm) (α-amylase; 15 min, sulfate hydrate)
Cn1c(=O)c2c(ncn2C)n(C)c1=O [CDI #33, Caffeine] | significant peroxidase inhibition capabilities | – | – | – | – | – | – | – | – | –
Aluminum potassium sulfate dodecahydrate [CDI-42] | significant peroxidase inhibition capabilities | 0.92 | 0.80 and 1.13 and 0.90 and 0.84 | 1.85 | 1.65 and 2.15 and 1.80 and 1.81 | 2.29 | 2.37 and 2.38 and 2.25 and 2.17 | – | – | –
COc1ccc(O)c(C(C)(C)C)c1 [CDI-039, 3-tert--butyl-hydroxyanisole] | significant peroxidase inhibition capabilities | – | – | – | – | – | – | – | – | –
Aluminum sulfate hydrate [CDI-34] | – | 0.40 | – | 0.50 | – | 0.56 | – | 0.40 (2×) and 0.36 and 0.45 | 0.49 and 0.50 (2×) and 0.52 | 0.53 and 0.61 and 0.54 and 0.56
